Laboratory results: PubChem BioAssay (NCI)
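Cultured in 96-well plates, cells were exposed to test compound for 48 hours across five concentrations. At the GI50, growth is halved. TGI: total growth inhibition.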

Columns and labels:
Assay in all cases: NCI anticancer screen, dose series, 48 h
SR leukemia = tested on: SR leukemia
MOLT-4 leukemia = tested on: MOLT-4 leukemia
LOX IMVI melanoma = tested on: LOX IMVI melanoma
MDA-MB-435 = tested on: MDA-MB-435
BT-549 breast = tested on: BT-549 breast
CCRF-CEM leukemia = tested on: CCRF-CEM leukemia
NCI-H460 lung = tested on: NCI-H460 lung
SF-539 CNS = tested on: SF-539 CNS
PC-3 prostate = tested on: PC-3 prostate
HL-60(TB) leukemia = tested on: HL-60(TB) leukemia

SMILES | GI50 (SR leukemia) | TGI (SR leukemia) | GI50 (MOLT-4 leukemia) | TGI (MOLT-4 leukemia) | GI50 (LOX IMVI melanoma) | TGI (LOX IMVI melanoma) | GI50 (MDA-MB-435) | TGI (MDA-MB-435) | GI50 (BT-549 breast) | TGI (BT-549 breast) | GI50 (CCRF-CEM leukemia) | TGI (CCRF-CEM leukemia) | GI50 (NCI-H460 lung) | TGI (NCI-H460 lung) | GI50 (SF-539 CNS) | TGI (SF-539 CNS) | GI50 (PC-3 prostate) | TGI (PC-3 prostate) | GI50 (HL-60(TB) leukemia) | TGI (HL-60(TB) leukemia)
O=S(=O)(Nc1cc(F)cc(Cl)c1)c1ccc(-c2cnc(C3CC3)o2)cc1 | 0.462 µM | > 100 µM | 2.55 µM | > 100 µM | 2.5 µM | 20.8 µM | 0.274 µM | 1.22 µM | 0.933 µM | 18.8 µM | 1.71 µM | > 100 µM | 0.64 µM | 13.8 µM | 1.25 µM | 10.5 µM | 1.25 µM | 14.3 µM | 0.761 µM | 24.2 µM
O=S(=O)([O-])c1ccc2c(c1)-c1nc-2nc2[n-]c(nc3nc(nc4[n-]c(n1)c1ccc(S(=O)(=O)[O-])cc41)-c1cc(S(=O)(=O)[O-])ccc1-3)c1ccc(S(=O)(=O)[O-])cc21.[Cu+2].[Na+] | 11.2 µM | > 100 µM | 2.19 µM | > 100 µM | 3.29 µM | > 100 µM | > 100 µM | > 100 µM | 47.4 µM | > 100 µM | 0.58 µM | > 39.5 µM | 4.65 µM | > 100 µM | > 100 µM | > 100 µM | 9.44 µM | > 100 µM | 0.174 µM | > 17.7 µM
CC(C)(C)C(=O)OCOP(=O)(OCOC(=O)C(C)(C)C)C1CCCN(O)C1=O (stereo not given) | 0.433 µM | 7.87 µM | 0.431 µM | 2.69 µM | 0.465 µM | 12.3 µM | 0.955 µM | 22.5 µM | 0.313 µM | 1.26 µM | 0.185 µM | 2.3 µM | 0.561 µM | 12.9 µM | 1.52 µM | 11.8 µM | 2.02 µM | > 100 µM | 0.538 µM | 3.53 µM
CCN1CCN(c2ccc(Nc3cc(N(C)C(=O)Nc4c(Cl)c(OC)cc(OC)c4Cl)ncn3)cc2)CC1 | 2.02 µM | 4.63 µM | 1.87 µM | 5.8 µM | 1.48 µM | 2.91 µM | 1.86 µM | 3.71 µM | 1.04 µM | 21.1 µM | 1.9 µM | 6.01 µM | 1.87 µM | 5.42 µM | 3.11 µM | 7.99 µM | 3.52 µM | 19.2 µM | 2.14 µM | 4.42 µM
COc1cc(Nc2cn[nH]c2-c2ccc(Cl)cc2)cc(OC)c1OC | 2.23 µM | 42.2 µM | 3.65 µM | > 80.2 µM | 5.62 µM | 20.7 µM | 1.26 µM | 4.24 µM | 3.37 µM | 19.2 µM | 3.42 µM | > 81.9 µM | 3.7 µM | 19.1 µM | 4.48 µM | 24.7 µM | 8.18 µM | > 64 µM | 2.6 µM | 28.6 µM
CC(SC(C)C(=O)N/N=C/c1cccc(Cl)c1)C(=O)N/N=C\c1cccc(Cl)c1 (stereo not given) | 3.53 µM | 11.1 µM | 11.2 µM | 42 µM | 3.03 µM | 10.5 µM | 5.02 µM | 23.9 µM | 18.2 µM | 41.6 µM | 5.77 µM | 52.3 µM | 2.34 µM | 4.92 µM | 16.3 µM | 44.2 µM | 4.36 µM | 25.8 µM | 6.24 µM | > 100 µM
COc1ncnc(C2CC2)c1-c1ncc2cnn(Cc3ccc(-c4nc(C(F)(F)F)cn4C(C)C)cc3)c2n1 | 19.7 µM | > 100 µM | 17.5 µM | > 100 µM | 14.8 µM | 31.7 µM | 19.8 µM | 51.6 µM | 21 µM | 80.5 µM | 34 µM | > 100 µM | 18.4 µM | 85.4 µM | 16.1 µM | 39 µM | 17.5 µM | > 100 µM | 31 µM | > 100 µM
COc1ccc(C(=O)c2cc(OC)c(C)c(OC)c2)cc1OC(=O)CCl | 0.0305 µM | 13.2 µM | 0.145 µM | 18 µM | 0.244 µM | 19.6 µM | 0.0265 µM | 0.0902 µM | 0.395 µM | 10.3 µM | 0.331 µM | > 100 µM | 0.37 µM | 12.7 µM | 0.172 µM | 0.58 µM | 0.275 µM | > 100 µM | 0.066 µM | 0.193 µM
Oc1ccc(Cl)cc1Cc1cc(Cl)cc(Cl)c1O | 5.02 µM | 27.4 µM | 5.52 µM | 32.1 µM | 4.83 µM | 19.2 µM | 4.35 µM | 83.2 µM | 3.32 µM | 11.9 µM | 6.53 µM | 88 µM | 3.22 µM | 13.2 µM | 2.33 µM | 6.65 µM | 3.59 µM | 15.5 µM | 4.64 µM | 28.6 µM
Cc1ccc(Cl)cc1Nc1nc(C(F)(F)F)ccc1C(=O)N1CCN(c2ccc(F)cc2)CC1 | 17.6 µM | 80.6 µM | 9.91 µM | 46.6 µM | 11.9 µM | 24.6 µM | 14.2 µM | 29.6 µM | 12.8 µM | 26.3 µM | 15.1 µM | 53.5 µM | 16 µM | 36.9 µM | 14.8 µM | 30.2 µM | 10.2 µM | 33.3 µM | 12.7 µM | 37.8 µM
COC(=O)/C=C/c1cc(O)c2oc(-c3ccc(O)c(O)c3)c(C(=O)OC)c2c1 | 0.039 µM | > 24.3 µM | 0.462 µM | 7.11 µM | 0.367 µM | 10.3 µM | 0.0295 µM | 0.108 µM | 1.5 µM | 11.9 µM | 0.402 µM | > 21.8 µM | 2.66 µM | 18.1 µM | 0.159 µM | 1.96 µM | 0.437 µM | 13.1 µM | 0.14 µM | 1.52 µM
Cc1nnc(S(=O)(=O)c2ccc(N=Nc3c(N)nc(N)nc3N)cc2)s1 | – | > 100 µM | – | > 100 µM | – | > 100 µM | – | > 100 µM | – | > 100 µM | – | > 100 µM | – | > 100 µM | – | > 100 µM | – | > 100 µM | – | 97.8 µM
Cc1ccc(C(SCC(N)C(=O)O)(c2ccccc2)c2ccc(C)cc2)cc1 (stereo not given) | 0.204 µM | 4.33 µM | 2.7 µM | > 48.2 µM | 0.602 µM | 21.5 µM | 0.0323 µM | 0.14 µM | 0.247 µM | 21.9 µM | 0.341 µM | > 75.7 µM | 0.307 µM | 12 µM | 0.129 µM | 2.47 µM | 0.314 µM | 30.4 µM | 0.235 µM | 0.588 µM
COc1ccc2c(c1)C(C)Cc1c(Cl)ncnc1N2C (stereo not given) | 0.45 µM | > 19.8 µM | 1.17 µM | > 22.6 µM | 0.218 µM | 0.517 µM | 0.355 µM | 1.81 µM | 0.433 µM | 18.4 µM | 2.14 µM | > 55.8 µM | 0.493 µM | > 100 µM | 0.471 µM | 18.8 µM | 0.424 µM | > 59.1 µM | 2 µM | 7.06 µM
CCCCc1c(OC)cc(O)c2c1C(=O)c1[nH]c(C(=O)O)c(O)c(=O)c1C2=O | – | 29.3 µM | – | > 100 µM | – | > 100 µM | – | > 100 µM | – | 52.8 µM | – | > 100 µM | – | > 100 µM | – | 2.54 µM | – | > 100 µM | – | > 100 µM
CC(C)=C[C@@H]1C[C@H](C)[C@H]2CC[C@H](C)C3=C2[C@](O)(OC3=O)[C@]1(C)O | > 100 µM | > 100 µM | > 100 µM | > 100 µM | > 100 µM | > 100 µM | > 100 µM | > 100 µM | > 100 µM | > 100 µM | > 100 µM | > 100 µM | > 100 µM | > 100 µM | > 100 µM | > 100 µM | > 100 µM | > 100 µM | > 100 µM | > 100 µM
O=C(OCc1ccc2cccc(O)c2n1)N1CCN(C(=O)c2cc3cc(F)ccc3[nH]2)CC1 | 0.272 µM | 1.6 µM | 0.334 µM | 1.37 µM | 1.36 µM | 2.75 µM | 1.19 µM | 2.8 µM | 1 µM | 2.21 µM | 0.242 µM | 0.995 µM | 1.34 µM | 3.64 µM | 1.15 µM | 2.36 µM | 0.513 µM | 2.02 µM | 1.31 µM | 3.47 µM
C=C(F)C(=O)N1CCN(c2nc(OC[C@@H]3CCCN3C)nc3c2CCN(c2cccc4cccc(Cl)c24)C3)C[C@@H]1CC#N | 0.657 µM | 2.6 µM | 0.573 µM | 2.71 µM | 1.13 µM | 2.47 µM | 0.961 µM | 2.22 µM | 2.19 µM | 4.57 µM | 1.05 µM | 4.32 µM | 1.05 µM | 2.38 µM | 0.936 µM | 2.25 µM | 0.855 µM | 2.44 µM | 0.86 µM | 2.5 µM
